# According to patent US9133220B2, “Boron-containing 5-arylidene-3,5-dihydro-4H-imidazol-4-ones” (Evrogen Joint Stock Company, priority 2012, dated 2015):
# Several values for one entry are separate records, joined by “and”; a condition that tells them apart may be missing. Equal values may be shown once.
# Key:
# [1] = Quantum yield of fluorescence; assay type: physicochemical
# Method: (§1) To measure spectral characteristics of some compounds with the formula I weighted portions of compounds p-NH2-BDI-BF2, p-dimethylamino-BDI-BF2, p-diethylamino-BDI-BF2, p-HOBDI-BF2, di-F-p-HOBDI-BF2, p-diethylamino-BDI-dimethylaminoethenyl-BF2 and p-HOBDI-dimethylaminoethenyl-BF2 were dissolved in water, ethanol and acetonitrile. Absorption spectra were measured on Varian Cary 100 Bio spectrophotometer, fluorescence spectra were measured on Varian Cary Eclipse scanning spectrofluorometer.
# The compounds p-NH2-BDI-BF2, p-HOBDI-BF2 (anionic form), di-Fp-HOBDI-BF2 (anionic form), p-diethylamino-BDI-dimethylaminoethenyl-BF2, p-HOBDI-dimethylaminoethenyl-BF2 (anionic form) have rather high quantum yields of fluorescence in water solutions.
# [2] = Measuring spectral characteristics (absorption and emission maxima, extinction coefficients); assay type: physicochemical
# Method: as §1
# The values of absorption and emission maxima and molar extinction coefficients for examples of compounds with the formula I in the indicated solvents are listed in a Table 2. Emission peaks of the investigated compounds settle into a rather wide range from 485 nm for p-HOBDI-BF2 to 598 nm for p-diethylamino-BDI-dimethylamino-ethenyl-BF2.
# [3] = tested on: cell membranes of HeLa Kyoto and HEK293 cell lines; assay: Staining of cell membranes and comparison of photostability with EGFP; assay type: cell-based, human
# Method: Human cell cultures HeLa and HEK293 were grown in standart conditions and analyzed by wide field fluorescent and confocal laser scanning microscopy (excitation at 488 nm, detection at 500-540 nm).
# The cell staining of the cells, temporarily expressing chimer protein EGFP-XRCC (nuclear localization), was carried out by p-diethylamino-BDI-BF2 in concentration 5 μM to compare fluorescent properties of the compound p-diethylamino-BDI-BF2 to the green fluorescent protein EGFP.
# [4] = Measuring spectral characteristics (absorption and emission maxima, extinction coefficients); assay type: physicochemical; conditions: excitation at 488 nm, detection at 500-540 nm
compound,measurement,setting,value
"CCN(CC)c1ccc(/C=C2\N=C(C)N(C)C2=O)c(B(F)F)c1 [p-diethylamino-BDI-BF2, (Z)-4-(4-(diethylamino)-2-(difluoroboryl)benzylidene)-1,2-dimethyl-1H-imidazole-5(4H)-one]",Quantum yield of fluorescence,[1]; acetonitrile,0.34
same,Quantum yield of fluorescence,[1]; ethanol,0.22
same,Quantum yield of fluorescence,[1]; in organic solvents,0.2-0.35
same,Quantum yield of fluorescence,[1]; water,0.05
same,"shift of emission and absorption spectra with change of more polar solvent (water) to less polar (ethanol, acetonitrile)",[2],hypsochromic shift
same,Abs. peak,[2]; acetonitrile,493 nm
same,Emis. peak,[2]; acetonitrile,553 nm
same,ext. coef.,[2]; acetonitrile,54000 M⁻¹ cm⁻¹
same,Abs. peak,[2]; ethanol,506 nm
same,Emis. peak,[2]; ethanol,558 nm
same,ext. coef.,[2]; ethanol,59000 M⁻¹ cm⁻¹
same,Abs. peak,[2]; water,518 nm and 514 nm
same,Emis. peak,[2]; water,562 nm
same,ext. coef.,[2]; water,54000 M⁻¹ cm⁻¹
same,accumulation in cell membranes,[3],accumulated in cell membranes
same,fluorescence after addition to the cell medium,"[3]; 1-5 μM, excitation 488 nm, detection 500-540 nm","bright yellow-green fluorescence was detected, associated with intracellular membrane structues and lipid drops"
same,difference in the brightness of fluorescence in water and organic phases,[4],more than 10 times
